Where two headings read alike, the source gives them in different places.
Tests used:
[1] = pH stability in buffer solutions (pH 2-10) and PBS pH 7.4; type: physicochemical; settings: for vepdegestrant remaining: 2 h, 0.1 µg/mL
Experimental: The physicochemical stability of vepdegestrant was determined using various pH buffers (pH 2.0–10.0) and plasma and microsomes.
A solution of vepdegestrant in methanol (10 µL) was added to buffer solutions at pH 2, 4, 6, 8, and 10 or pH 7.4 PBS (490 µL), yielding a final concentration of 0.1 µg/mL, and incubated at 37 °C, with 100 rpm in a water bath. At 0, 0.5, 1, and 2 h post-incubation, the incubation mixture (50 µL) was transferred to microtubes containing ice-cold ACN solution (200 µL) with IS to terminate the reaction. The mixture was vortexed thoroughly for 10 min. Subsequently, the supernatant (100 µL) was taken, and 5 µL was injected for HPLC-MS/MS analysis.

[2] = Stability in PBS only (control of microsomal stability test, no NADPH and no microsomes); type: physicochemical; settings: PBS (pH 7.4), 1 h incubation
Experimental: The metabolic stability of vepdegestrant was evaluated using liver microsomes obtained from mice, rats, dogs, and humans. Vepdegestrant was dissolved in DMSO to prepare a stock solution with a concentration of 0.1 mM. Microsomes (25 µL) were spiked into PBS (440 µL) and pre-incubated for 5 min. After pre-incubation, vepdegestrant stock solution (5 µL) was added, followed by an NADPH regenerating system (27 µL) to initiate the reaction. The composition of the reaction mixture was as follows: Vepdegestrant (final concentration 1 µM), mouse, rat, dog, human liver microsomes (protein concentration: 1 mg/mL), NADPH regenerating system (final concentrations: 1.3 mM NADP^+, 3.3 mM glucose-6-phosphate, 0.4 U/mL glucose-6-phosphate dehydrogenase, and 3.3 mM magnesium chloride), and PBS (pH 7.4). At 5, 15, 30, and 60 min after starting the reaction, aliquots (50 µL) were taken and added to ice-cold ACN with an IS (200 µL) to terminate the reaction. For the zero-time samples, aliquots were taken before adding NADPH. Subsequently, the mixture was vigorously mixed for 10 min and centrifuged at 17,054 g under 25 °C for 10 min. For analysis, 5 µL of the supernatant was injected into the HPLC-MS/MS system. In addition, the stability of vepdegestrant in rat liver microsomes was assessed in the absence of NADPH or NADPH and microsomes (PBS only). […]

[3] = Pharmacokinetic study in male SD rats; type: in vivo; settings: rat
Experimental: Twelve healthy male ICR mice (6 weeks old, 27.5–30.5 g) and 10 healthy male Sprague–Dawley (SD) rats (7 weeks old, 195.5–212.0 g) were acquired from Orient Bio Inc. (Seongnam, Republic of Korea) and used for PK studies. The animals were kept in rooms in a temperature range of 20–25 °C, humidity of 40–60%, and a 12-h light/dark cycle. Before the experiment, mice were fasted for 4 h, whereas rats were fasted for 14 h, with only water provided during the fasting period. After 4 h of drug administration, animals were provided with free access to food and water. All animal experiments were approved by the Institutional Animal Care and Use Committee of the Chungnam National University (202310A-CNU-178; Daejeon, Republic of Korea).
For the PK studies in rats, a vepdegestrant dosing solution was prepared using a combination of DMSO, PEG 400, cremophor EL, and saline (5:40:2.5:52.5, v/v/v/v). The dosages were set at 2 and 5 mg/kg for IV and PO, respectively, consistent with mouse PK studies. The dose volumes were 2 and 5 mL/kg IV and PO, respectively. Blood samples (100 µL) were collected from the jugular vein using heparinized syringes at 0.08 (IV only), 0.25, 0.5, 1, 2, 4, 8, and 24 h post vepdegestrant administration. Blood samples were immediately centrifuged at 12,032 g under 25 °C for 5 min, and plasma aliquots (20 μL) were stored at −20 °C until HPLC-MS/MS analysis.
The collected plasma samples from mice or rats (20 µL) were added with IS (20 µL) and ACN (160 µL). Subsequently, the mixture was vigorously mixed for 10 min and centrifuged at 17,054× g under 25 °C for 10 min. An aliquot of the supernatant (100 μL) was taken, and a volume of 5 μL was injected for HPLC-MS/MS analysis. PK parameters were calculated using Phoenix® 8.3 software (Certara L.P., Princeton, NJ, USA), as described previously.

[4] = Plasma stability at 4, 25 and 37 °C; type: in vitro ADME; settings: mouse and rat plasma at 4, 25 and 37 °C, 4 h incubation, 0.1 µg/mL
Experimental: Plasma stability of vepdegestrant was investigated in mouse and rat plasma. Vepdegestrant (10 µL) was added to blank mouse or rat plasma (490 µL) to prepare a final concentration of 0.1 µg/mL. The mixtures were incubated at 4, 25, and 37 °C. After 0, 1, and 4 h of incubation, aliquots (50 µL) were added to microtubes containing ice-cold ACN solution with an IS (200 µL) to terminate the reaction. The mixture was vortexed thoroughly for 10 min and centrifuged at 17,054 g under 25 °C for 10 min. Subsequently, the supernatant (100 µL) was taken, and 5 µL was injected for HPLC-MS/MS analysis.

[5] = male, Sprague-Dawley, plasma, IV 2 mg/kg
[6] = male, Sprague-Dawley, plasma, PO 5 mg/kg

half-life at 0.1 µg/mL ([1]; PBS pH 7.4, pH 7.4 (PBS), 37 °C): 0.5 h
half-life at 0.1 µg/mL ([1]; pH 2 buffer solution, pH 2, 37 °C): 7.35 h
vepdegestrant remaining ([1]; pH 2 buffer, 37 °C): 82.6%
half-life at 0.1 µg/mL ([1]; pH 4 buffer solution, pH 4, 37 °C): 0.77 h
vepdegestrant remaining ([1]; pH 4–10 buffers, 37 °C): 2.25–12.8%
half-life at 0.1 µg/mL ([1]; pH 6 buffer solution, pH 6, 37 °C): 0.4 h
half-life at 0.1 µg/mL ([1]; pH 8 buffer solution, pH 8, 37 °C): 0.38 h
half-life at 0.1 µg/mL ([1]; pH 10 buffer solution, pH 10, 37 °C): 0.6 h
vepdegestrant remaining [2]: 10.2%
Cmax [3, 5]: 850 ± 95 ng/mL
MRT [3, 5]: 4.14 ± 0.348 h
Tmax [3, 5]: 0.083 h
clearance [3, 5]: 17.6 mL/min/kg
half-life [3, 5]: 3.97 ± 0.284 h
Cmax [3, 6]: 108 ± 38 ng/mL
MRT [3, 6]: 6.54 ± 0.965 h
Tmax [3, 6]: 3.2 ± 2.95 h
half-life [3, 6]: 4.07 ± 0.418 h
bioavailability ([3]; male, Sprague-Dawley, plasma, PO 5 mg/kg vs IV 2 mg/kg, read-out: BA (oral bioavailability)): 24.1 ± 9.39%
Vd ([3]; male, Sprague-Dawley, plasma, intravenous, 2 mg/kg, read-out: volume of distribution): > 1 L/kg
Vd ([3]; male, Sprague-Dawley, plasma, iv, 2 mg/kg, IV 2 mg/kg, read-out: Vss): 4.43 ± 0.3 L/kg
AUCinf ([3]; IV 2 mg/kg): 1900 ± 90 ng·h/mL
AUClast ([3]; IV 2 mg/kg): 1880 ± 84 ng·h/mL
Vss ([3]; IV 2 mg/kg, 2 mg/kg): 4.354 ± 0.3 L/kg
AUCinf ([3]; PO 5 mg/kg): 1150 ± 446 ng·h/mL
AUClast ([3]; PO 5 mg/kg): 1120 ± 428 ng·h/mL
clearance as % of liver blood flow ([3]; liver blood flow 3.3 L/h/kg): approximately 31.9%
vepdegestrant remaining in plasma [4]: 86.3–113.5%
SMILES: O=C1CC[C@H](N2Cc3cc(N4CCN(CC5CCN(c6ccc([C@@H]7c8ccc(O)cc8CC[C@@H]7c7ccccc7)cc6)CC5)CC4)ccc3C2=O)C(=O)N1 [vepdegestrant, Vepdegestrant]

Source: paper PMC11396746, “Stability Evaluation and Pharmacokinetic Profiling of Vepdegestrant in Rodents Using Liquid Chromatography–Tandem Mass Spectrometry” (Molecules, 2024)
